The text below walks through data of patent US10822450B2, “Poly(glycerol sebacate)-interleukin inhibitor copolymers and methods of making and use” (THE SECANT GROUP, LLC, priority 2017, dated 2020).

The format of the data set is physicochemical. The note with it: pH 11. As for the experimental part:
A PGS-aspirin copolymer from Example 6 was thermoset by heating to 130° C. at a pressure of 10 Torr for 72 hours. Three thin cylindrical disks, each having a diameter of 10 mm, were punched out of the resultant thin film, which was about 1 mm thick.
Each disk was placed in 10 mL of 0.09 M phosphate-buffered saline (PBS) at a pH of 11 and a temperature of 37° C. for four weeks. At 1-week intervals, the solution was removed and tested for salicylic acid content by UV analysis at a wavelength of 303 nm and for pH. Each sample was rinsed three times with distilled water and vacuum dried prior to being placed in fresh PBS.

For the substance PGS-aspirin copolymer [Example 8], the “disk integrity during degradation” value is given as “began to fall apart”.
